Reference: ChEMBL document CHEMBL5528046, “Discovery of Novel PROTAC Degraders of p300/CBP as Potential Therapeutics for Hepatocellular Carcinoma” (J Med Chem, 2024)
pIC50: −log10 of the molar value. Active and inactive are the calls of the source. No cut-off for these calls is given here.

Legend:
[1] = target: T1, Protein cereblon/Histone acetyltransferase p300 (Homo sapiens, UniProt Q09472+Q96SW2); assay: PROTAC activity at CRBN/p300 in human SK-HEP1 cells assessed as induction of p300 protein degradation at 0.01 uM incubated for 24 hrs relative to control; type: cell-based
[2] = target: T1, Protein cereblon/Histone acetyltransferase p300; assay: PROTAC activity at CRBN/p300 in human SK-HEP1 cells assessed as induction of p300 protein degradation at 0.1 uM incubated for 24 hrs relative to control; type: cell-based
[3] = target: T1, Protein cereblon/Histone acetyltransferase p300; assay: PROTAC activity at CRBN/p300 in human SK-HEP1 cells assessed as induction of p300 protein degradation at 1 uM incubated for 24 hrs relative to control; type: cell-based
[4] = target: CREB-binding protein/Histone acetyltransferase p300 (Homo sapiens, UniProt Q09472+Q92793); assay: Inhibition of p300/CBP (unknown origin) using histone H3 (1 to 21 residues) as substrate incubated for 90 mins by AlphaLISA assay; type: protein assay
[5] = test system: SK-HEP1; assay: Antiproliferative activity against human SK-HEP1 cells assessed as inhibition of cell growth incubated for 5 days by CCK-8 assay; type: functional, cell-based; settings: SK-HEP1, 120 h
[6] = Antiproliferative activity against human JHH7 cells assessed as inhibition of cell growth incubated for 5 days by CCK-8 assay; type: functional, cell-based; settings: JHH7, 120 h
[7] = test system: SK-HEP1; assay: Induction of cell cycle arrest at G2/M phase in human SK-HEP1 cells assessed as SKP2 protein level at 2 uM incubated for 24 hrs by immunoblotting analysis (reference value: 100%); type: functional
[8] = test system: SK-HEP1; assay: Induction of cell cycle arrest at G2/M phase in human SK-HEP1 cells assessed as reduction in CDK6 protein level at 2 uM incubated for 24 hrs by immunoblotting analysis (reference value: 100%); type: functional; design: scale not given: the % may be the effect or the level left
[9] = test system: Mus musculus; assay: In vivo PROTAC activity at CRBN/p300 in nude mouse xenografted with human SK-HEP1 cells assessed as reduction in p300 protein level in tumor at 50 mg/kg, ip measured after 24 hrs by immunoblotting analysis; type: functional, organism-based
[10] = target: Protein cereblon/CREB-binding protein (Homo sapiens) (UniProt Q92793+Q96SW2); assay: In vivo PROTAC activity at CRBN/CBP in nude mouse xenografted with human SK-HEP1 cells assessed as reduction in CBP protein level in tumor at 50 mg/kg, ip measured after 24 hrs by immunoblotting analysis; type: functional, organism-based
[11] = target: T1, Protein cereblon/Histone acetyltransferase p300; assay: PROTAC activity at CRBN/p300 in human SK-HEP1 cells assessed as increase in protein ubiquitination at 2 uM incubated for 24 hrs by immunoblotting analysis (reference value: 100%); type: cell-based
[12] = target: T1, Protein cereblon/Histone acetyltransferase p300; assay: PROTAC activity at CRBN/p300 in human SK-HEP1 cells assessed as increase in protein ubiquitination at 2 uM pretreated with MG132 at 1 uM followed by compound treatment and further incubated for 24 hrs by immunoblotting analysis (reference value: 100%); type: cell-based

T1 sequence (Q09472 2-2414 limits assumed): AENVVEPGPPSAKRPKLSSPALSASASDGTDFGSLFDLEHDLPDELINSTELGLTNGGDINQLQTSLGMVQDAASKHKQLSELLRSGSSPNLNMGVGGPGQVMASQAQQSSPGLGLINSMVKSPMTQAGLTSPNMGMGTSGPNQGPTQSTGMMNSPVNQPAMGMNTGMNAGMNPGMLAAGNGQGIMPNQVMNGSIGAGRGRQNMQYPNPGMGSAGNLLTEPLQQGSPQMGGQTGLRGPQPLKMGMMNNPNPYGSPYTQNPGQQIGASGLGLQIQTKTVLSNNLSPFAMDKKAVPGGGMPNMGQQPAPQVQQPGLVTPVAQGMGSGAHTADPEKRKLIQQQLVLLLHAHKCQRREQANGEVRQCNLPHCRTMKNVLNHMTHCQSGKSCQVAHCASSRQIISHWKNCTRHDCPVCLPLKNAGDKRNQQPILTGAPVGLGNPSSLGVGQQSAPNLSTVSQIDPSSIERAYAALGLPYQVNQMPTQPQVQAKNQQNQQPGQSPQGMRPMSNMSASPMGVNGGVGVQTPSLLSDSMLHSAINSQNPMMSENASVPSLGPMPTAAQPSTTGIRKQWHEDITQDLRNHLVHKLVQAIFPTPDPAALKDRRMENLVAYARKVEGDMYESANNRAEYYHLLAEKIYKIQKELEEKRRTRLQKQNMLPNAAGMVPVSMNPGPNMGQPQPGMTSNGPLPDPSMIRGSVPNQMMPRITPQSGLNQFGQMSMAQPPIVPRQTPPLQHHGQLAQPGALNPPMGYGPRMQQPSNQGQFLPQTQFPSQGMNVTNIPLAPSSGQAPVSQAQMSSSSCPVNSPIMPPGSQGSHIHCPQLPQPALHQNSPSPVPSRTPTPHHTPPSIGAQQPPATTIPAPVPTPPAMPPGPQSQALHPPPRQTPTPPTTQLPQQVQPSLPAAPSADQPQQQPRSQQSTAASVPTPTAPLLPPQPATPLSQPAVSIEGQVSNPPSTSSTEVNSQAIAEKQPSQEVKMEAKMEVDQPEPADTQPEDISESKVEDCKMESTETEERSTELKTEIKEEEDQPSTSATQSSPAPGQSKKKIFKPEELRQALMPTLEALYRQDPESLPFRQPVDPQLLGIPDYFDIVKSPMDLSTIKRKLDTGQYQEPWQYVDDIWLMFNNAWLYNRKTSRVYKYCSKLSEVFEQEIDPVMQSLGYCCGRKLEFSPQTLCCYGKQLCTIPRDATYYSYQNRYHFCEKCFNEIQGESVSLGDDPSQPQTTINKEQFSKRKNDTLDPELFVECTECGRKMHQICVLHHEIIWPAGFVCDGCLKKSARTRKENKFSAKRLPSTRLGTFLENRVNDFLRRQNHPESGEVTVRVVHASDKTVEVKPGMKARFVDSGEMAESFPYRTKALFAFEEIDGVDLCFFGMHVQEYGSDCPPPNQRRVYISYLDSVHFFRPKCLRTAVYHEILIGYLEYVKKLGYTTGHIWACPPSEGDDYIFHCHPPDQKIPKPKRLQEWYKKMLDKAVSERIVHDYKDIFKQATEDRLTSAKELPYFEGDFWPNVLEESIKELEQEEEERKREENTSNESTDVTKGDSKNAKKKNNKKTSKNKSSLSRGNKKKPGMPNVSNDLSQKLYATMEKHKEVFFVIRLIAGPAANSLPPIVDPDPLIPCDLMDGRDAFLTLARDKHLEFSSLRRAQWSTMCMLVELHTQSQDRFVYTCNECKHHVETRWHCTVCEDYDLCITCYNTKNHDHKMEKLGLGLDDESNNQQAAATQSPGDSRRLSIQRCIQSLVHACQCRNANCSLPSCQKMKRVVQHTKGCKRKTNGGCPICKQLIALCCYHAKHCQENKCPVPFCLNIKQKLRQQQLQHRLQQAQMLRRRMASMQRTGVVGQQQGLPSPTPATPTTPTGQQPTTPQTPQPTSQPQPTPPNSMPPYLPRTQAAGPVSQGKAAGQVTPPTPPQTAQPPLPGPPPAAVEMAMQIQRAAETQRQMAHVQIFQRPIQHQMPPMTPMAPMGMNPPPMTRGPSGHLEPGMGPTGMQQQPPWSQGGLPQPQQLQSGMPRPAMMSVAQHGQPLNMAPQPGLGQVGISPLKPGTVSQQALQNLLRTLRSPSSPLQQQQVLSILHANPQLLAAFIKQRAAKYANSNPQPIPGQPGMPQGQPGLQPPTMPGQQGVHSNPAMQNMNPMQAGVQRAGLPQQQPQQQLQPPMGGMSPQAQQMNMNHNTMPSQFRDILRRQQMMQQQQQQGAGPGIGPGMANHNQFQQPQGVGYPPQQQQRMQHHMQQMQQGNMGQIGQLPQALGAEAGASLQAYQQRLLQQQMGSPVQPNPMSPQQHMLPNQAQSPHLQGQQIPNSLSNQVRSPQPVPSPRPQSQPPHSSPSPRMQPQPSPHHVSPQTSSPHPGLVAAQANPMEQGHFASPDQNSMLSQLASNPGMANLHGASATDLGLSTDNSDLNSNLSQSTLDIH
T1 sequence (Q96SW2 whole entry partner): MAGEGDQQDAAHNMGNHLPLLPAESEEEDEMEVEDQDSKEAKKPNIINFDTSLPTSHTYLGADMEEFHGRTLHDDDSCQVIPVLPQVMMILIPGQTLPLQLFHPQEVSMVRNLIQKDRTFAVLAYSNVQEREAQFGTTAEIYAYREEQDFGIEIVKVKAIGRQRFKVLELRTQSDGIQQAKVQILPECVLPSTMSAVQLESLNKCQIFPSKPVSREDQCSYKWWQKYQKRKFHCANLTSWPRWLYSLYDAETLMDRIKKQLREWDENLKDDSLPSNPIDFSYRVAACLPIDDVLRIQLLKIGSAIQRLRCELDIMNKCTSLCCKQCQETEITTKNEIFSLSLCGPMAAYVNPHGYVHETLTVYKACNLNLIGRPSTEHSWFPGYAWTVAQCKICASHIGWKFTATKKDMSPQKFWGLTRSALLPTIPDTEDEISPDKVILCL

Activity [1] [%]	Activity [2] [%]	Activity [3] [%]	Compound	other results
< 1	< 1	15	Cc1noc(C)c1-c1ccc2c(c1)nc([C@@H]1CCCC(=O)N1c1ccc(F)c(F)c1)n2C1CCN(C(=O)CCOCCNc2cccc3c2C(=O)N(C2CCC(=O)NC2=O)C3=O)CC1 (stereo partly specified)	–
< 1	< 1	19	Cc1noc(C)c1-c1ccc2c(c1)nc([C@@H]1CCCC(=O)N1c1ccc(F)c(F)c1)n2C1CCN(C(=O)CCOCCOCCOCCNc2ccc3c(c2)C(=O)N(C2CCC(=O)NC2=O)C3=O)CC1 (stereo partly specified)	–
< 1	< 1	4	Cc1noc(C)c1-c1ccc2c(c1)nc([C@@H]1CCCC(=O)N1c1ccc(F)c(F)c1)n2C1CCN(C2CN(c3cccc4c3C(=O)N(C3CCC(=O)NC3=O)C4=O)C2)CC1 (stereo partly specified)	–
< 1	< 1	18	Cc1noc(C)c1-c1ccc2c(c1)nc([C@@H]1CCCC(=O)N1c1ccc(F)c(F)c1)n2C1CCN(C(=O)CCOCCNc2ccc3c(c2)C(=O)N(C2CCC(=O)NC2=O)C3=O)CC1 (stereo partly specified)	–
3	< 1	23	Cc1noc(C)c1-c1ccc2c(c1)nc([C@@H]1CCCC(=O)N1c1ccc(F)c(F)c1)n2C1CN(C2CN(c3cccc4c3C(=O)N(C3CCC(=O)NC3=O)C4=O)C2)C1 (stereo partly specified)	–
6	9	32	Cc1noc(C)c1-c1ccc2c(c1)nc([C@@H]1CCCC(=O)N1c1ccc(F)c(F)c1)n2C1CCN(c2ccc3c(c2)C(=O)N(C2CCC(=O)NC2=O)C3=O)CC1 (stereo partly specified)	–
< 1	< 1	39	Cc1noc(C)c1-c1ccc2c(c1)nc([C@@H]1CCCC(=O)N1c1ccc(F)c(F)c1)n2C1CCN(c2cccc3c2C(=O)N(C2CCC(=O)NC2=O)C3=O)CC1 (stereo partly specified)	–
< 1	8	28	Cc1noc(C)c1-c1ccc2c(c1)nc([C@@H]1CCCC(=O)N1c1ccc(F)c(F)c1)n2C1CN(C2CCN(c3cccc4c3C(=O)N(C3CCC(=O)NC3=O)C4=O)CC2)C1 (stereo partly specified)	–
< 1	2	3	Cc1noc(C)c1-c1ccc2c(c1)nc([C@@H]1CCCC(=O)N1c1ccc(F)c(F)c1)n2C1CCN(C(=O)CNc2ccc3c(c2)C(=O)N(C2CCC(=O)NC2=O)C3=O)CC1 (stereo partly specified)	–
< 1	2	25	Cc1noc(C)c1-c1ccc2c(c1)nc([C@@H]1CCCC(=O)N1c1ccc(F)c(F)c1)n2C1CCN(C(=O)CCOCCOCCNc2cccc3c2C(=O)N(C2CCC(=O)NC2=O)C3=O)CC1 (stereo partly specified)	–
< 1	< 1	29	Cc1noc(C)c1-c1ccc2c(c1)nc([C@@H]1CCCC(=O)N1c1ccc(F)c(F)c1)n2C1CCN(C(=O)CCOCCOCCNc2ccc3c(c2)C(=O)N(C2CCC(=O)NC2=O)C3=O)CC1 (stereo partly specified)	–
–	–	–	CC(=O)N1CCC(n2c([C@@H]3CCCC(=O)N3c3ccc(F)c(F)c3)nc3cc(-c4c(C)noc4C)ccc32)CC1	IC50 [4]: 0.026 µM; pIC50 [5]: 5.36; pIC50 [6]: < 4.70; Activity [7]: 117%; Activity [8]: 101%; Activity [9]: inactive; Activity [10]: inactive; Activity [11]: 105%; Activity [12]: 97%
–	–	–	CC(=O)N1CC(n2c([C@@H]3CCCC(=O)N3c3ccc(F)c(F)c3)nc3cc(-c4c(C)noc4C)ccc32)C1	IC50 [4]: 0.025 µM
< 1	< 1	18	Cc1noc(C)c1-c1ccc2c(c1)nc([C@@H]1CCCC(=O)N1c1ccc(F)c(F)c1)n2C1CCN(C(=O)CNc2cccc3c2C(=O)N(C2CCC(=O)NC2=O)C3=O)CC1 (stereo partly specified)	–
–	–	–	CO[C@H]1CC[C@H](n2c([C@@H]3CCCC(=O)N3c3ccc(F)c(F)c3)nc3cc(-c4c(C)noc4C)ccc32)CC1 [INOBRODIB]	pIC50 [5]: 5.33; pIC50 [6]: 5.01; Activity [7]: 95%; Activity [8]: 96%
3	7	18	CNC(=O)N1CCc2c(c(N3CCCc4cc(-c5cnn(C)c5)c(C(F)F)cc43)nn2C2CCN(C(=O)CCOCCOCCOCCOCCNc3ccc4c(c3)C(=O)N(C3CCC(=O)NC3=O)C4=O)CC2)C1 (stereo unspecified)	pIC50 [5]: < 4.70; pIC50 [6]: < 4.70
< 1	< 1	8	Cc1noc(C)c1-c1ccc2c(c1)nc([C@@H]1CCCC(=O)N1c1ccc(F)c(F)c1)n2C1CCN(C(=O)CCOCCOCCOCCNc2cccc3c2C(=O)N(C2CCC(=O)NC2=O)C3=O)CC1 (stereo partly specified)	–
4	< 1	26	Cc1noc(C)c1-c1ccc2c(c1)nc([C@@H]1CCCC(=O)N1c1ccc(F)c(F)c1)n2C1CN(C2CCN(c3ccc4c(c3)C(=O)N(C3CCC(=O)NC3=O)C4=O)CC2)C1 (stereo partly specified)	–
< 1	< 1	28	Cc1noc(C)c1-c1ccc2c(c1)nc([C@@H]1CCCC(=O)N1c1ccc(F)c(F)c1)n2C1CCN(C(=O)CCOCCOCCOCCOCCNc2ccc3c(c2)C(=O)N(C2CCC(=O)NC2=O)C3=O)CC1 (stereo partly specified)	–
9	5	38	Cc1noc(C)c1-c1ccc2c(c1)nc([C@@H]1CCCC(=O)N1c1ccc(F)c(F)c1)n2C1CCN(C2CCN(c3ccc4c(c3)C(=O)N(C3CCC(=O)NC3=O)C4=O)CC2)CC1 (stereo partly specified)	–
4	6	9	Cc1noc(C)c1-c1ccc2c(c1)nc([C@@H]1CCCC(=O)N1c1ccc(F)c(F)c1)n2C1CCN(C2CCN(c3cccc4c3C(=O)N(C3CCC(=O)NC3=O)C4=O)CC2)CC1 (stereo partly specified)	–
< 1	< 1	49	Cc1noc(C)c1-c1ccc2c(c1)nc([C@@H]1CCCC(=O)N1c1ccc(F)c(F)c1)n2C1CCN(C(=O)CCOCCOCCOCCOCCNc2cccc3c2C(=O)N(C2CCC(=O)NC2=O)C3=O)CC1 (stereo partly specified)	–
< 1	< 1	27	Cc1noc(C)c1-c1ccc2c(c1)nc([C@@H]1CCCC(=O)N1c1ccc(F)c(F)c1)n2C1CN(C2CN(c3ccc4c(c3)C(=O)N(C3CCC(=O)NC3=O)C4=O)C2)C1 (stereo partly specified)	–
